Article PMC5814754, “Quantitative, Wide-Spectrum Kinase Profiling in Live Cells for Assessing the Effect of Cellular ATP on Target Engagement” (Cell Chemical Biology, 2018)
Where two headings read alike, the source gives them in different places. Each block holds one molecule with its values, some of them ahead of it.

How the values were obtained:
[1] = test system: INSR; conditions: read-out: Crizotinib IC50 Biochemical; ref Cui et al., 2011; cited from earlier work
[2] = test system: MET; conditions: read-out: Crizotinib IC50 Biochemical; ref Cui et al., 2011; cited from earlier work
[3] = test system: ABL; conditions: read-out: Live Cell IC50 Phospho Elisa; ref Cui et al., 2011; cited from earlier work
[4] = test system: TRKB; conditions: read-out: Live Cell IC50 Phospho Elisa; ref Cui et al., 2011; cited from earlier work
[5] = test system: MET; conditions: read-out: Live Cell IC50 Phospho Elisa; ref Cui et al., 2011; cited from earlier work
[6] = molecular target: T1, EPHB6 (Homo sapiens, UniProt O15197); experiment: NanoBRET target engagement, EPHB6-NanoLuc, HEK293 cells (live, ATP depleted, permeabilized); conditions: for EC50: read-out: Tracer Affinity EC50, EPHB6-NanoLuc
T1 sequence (O15197 32-1021): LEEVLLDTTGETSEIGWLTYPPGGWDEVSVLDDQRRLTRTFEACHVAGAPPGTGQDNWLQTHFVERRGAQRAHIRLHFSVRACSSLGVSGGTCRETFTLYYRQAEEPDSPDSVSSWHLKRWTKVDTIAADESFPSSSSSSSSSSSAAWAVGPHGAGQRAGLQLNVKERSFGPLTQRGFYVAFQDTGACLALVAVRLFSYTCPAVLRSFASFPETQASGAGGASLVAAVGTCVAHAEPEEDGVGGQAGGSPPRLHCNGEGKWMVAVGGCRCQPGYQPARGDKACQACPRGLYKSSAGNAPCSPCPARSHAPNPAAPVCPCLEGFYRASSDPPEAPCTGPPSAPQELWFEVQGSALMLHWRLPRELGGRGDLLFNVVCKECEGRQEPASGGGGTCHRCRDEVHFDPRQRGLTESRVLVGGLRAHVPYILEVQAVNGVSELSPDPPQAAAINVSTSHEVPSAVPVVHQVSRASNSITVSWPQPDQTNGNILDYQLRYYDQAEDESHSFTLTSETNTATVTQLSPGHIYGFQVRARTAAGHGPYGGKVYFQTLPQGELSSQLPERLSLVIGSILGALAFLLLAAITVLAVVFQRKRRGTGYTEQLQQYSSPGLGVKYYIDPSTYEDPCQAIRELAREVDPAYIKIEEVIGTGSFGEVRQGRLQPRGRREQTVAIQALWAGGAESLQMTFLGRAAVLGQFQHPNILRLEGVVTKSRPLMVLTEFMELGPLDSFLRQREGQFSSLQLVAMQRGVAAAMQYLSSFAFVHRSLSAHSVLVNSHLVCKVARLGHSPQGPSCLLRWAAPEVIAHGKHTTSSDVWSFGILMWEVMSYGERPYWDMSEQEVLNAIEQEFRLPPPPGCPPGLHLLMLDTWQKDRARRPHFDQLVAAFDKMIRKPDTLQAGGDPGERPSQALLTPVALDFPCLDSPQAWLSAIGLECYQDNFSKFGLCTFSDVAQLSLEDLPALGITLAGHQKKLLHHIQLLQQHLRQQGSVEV

[7] = molecular target: full-length kinase/Nluc fusion proteins (Homo sapiens, UniProt O00444); experiment: Apparent affinity (EC50) of energy transfer probes by titration onto live HEK293 cells expressing kinase/Nluc fusions (Table S1); format: binding; conditions: PLK4, Nluc N; read-out: Probe EC50
[8] = molecular target: full-length kinase/Nluc fusion proteins (Homo sapiens, UniProt P06239); experiment: as above; format: binding; conditions: LCK
[9] = molecular target: full-length kinase/Nluc fusion proteins (Homo sapiens, UniProt P21802); experiment: as above; format: binding; conditions: FGFR2, Nluc C; read-out: Probe EC50
[10] = molecular target: full-length kinase/Nluc fusion proteins (Homo sapiens, UniProt P22607); experiment: as above; format: binding; conditions: FGFR3, Nluc C; read-out: Probe EC50
[11] = molecular target: full-length kinase/Nluc fusion proteins (Homo sapiens, UniProt P45984); experiment: as above; format: binding; conditions: MAPK9, Nluc N; read-out: Probe EC50
[12] = molecular target: full-length kinase/Nluc fusion proteins (Homo sapiens, UniProt P51955); experiment: as above; format: binding; conditions: NEK2, Nluc N; read-out: Probe EC50
[13] = molecular target: full-length kinase/Nluc fusion proteins (Homo sapiens, UniProt Q02156); experiment: as above; format: binding; conditions: PRKCE, Nluc C; read-out: Probe EC50
[14] = molecular target: full-length kinase/Nluc fusion proteins (Homo sapiens, UniProt Q14164); experiment: as above; format: binding; conditions: IKBKE, Nluc N; read-out: Probe EC50
[15] = molecular target: full-length kinase/Nluc fusion proteins (Homo sapiens, UniProt Q6P5Z2); experiment: as above; format: binding; conditions: PKN3, Nluc C; read-out: Probe EC50
[16] = molecular target: full-length kinase/Nluc fusion proteins (Homo sapiens, UniProt Q8IWQ3); experiment: as above; format: binding; conditions: BRSK2, Nluc N; read-out: Probe EC50
[17] = molecular target: full-length kinase/Nluc fusion proteins (Homo sapiens, UniProt Q8NG66); experiment: as above; format: binding; conditions: NEK11, Nluc N; read-out: Probe EC50
[18] = molecular target: full-length kinase/Nluc fusion proteins (Homo sapiens, UniProt Q9HAZ1); experiment: as above; format: binding; conditions: CLK4, Nluc C; read-out: Probe EC50
[19] = molecular target: full-length kinase/Nluc fusion proteins (Homo sapiens, UniProt Q9NSY1); experiment: as above; format: binding; conditions: BMP2K, Nluc N; read-out: Probe EC50
[20] = molecular target: full-length kinase/Nluc fusion proteins (Homo sapiens, UniProt Q9P286); experiment: as above; format: binding; conditions: PAK7, Nluc C; read-out: Probe EC50
[21] = molecular target: full-length kinase/Nluc fusion proteins (Homo sapiens, UniProt Q9UQB9); experiment: as above; format: binding; conditions: AURKC, Nluc C; read-out: Probe EC50
[22] = molecular target: full-length kinase/Nluc fusion proteins (Homo sapiens, UniProt P07333); experiment: as above; format: binding; conditions: CSF1R, Nluc C; read-out: Probe EC50
[23] = molecular target: full-length kinase/Nluc fusion proteins (Homo sapiens, UniProt P10721); experiment: as above; format: binding; conditions: KIT, Nluc C; read-out: Probe EC50
[24] = molecular target: full-length kinase/Nluc fusion proteins (Homo sapiens, UniProt P29322); experiment: as above; format: binding; conditions: EPHA8, Nluc C; read-out: Probe EC50

Chain of full-length kinase/Nluc fusion proteins (Homo sapiens, UniProt P06239) (P06239 whole entry, the tested form may be a part): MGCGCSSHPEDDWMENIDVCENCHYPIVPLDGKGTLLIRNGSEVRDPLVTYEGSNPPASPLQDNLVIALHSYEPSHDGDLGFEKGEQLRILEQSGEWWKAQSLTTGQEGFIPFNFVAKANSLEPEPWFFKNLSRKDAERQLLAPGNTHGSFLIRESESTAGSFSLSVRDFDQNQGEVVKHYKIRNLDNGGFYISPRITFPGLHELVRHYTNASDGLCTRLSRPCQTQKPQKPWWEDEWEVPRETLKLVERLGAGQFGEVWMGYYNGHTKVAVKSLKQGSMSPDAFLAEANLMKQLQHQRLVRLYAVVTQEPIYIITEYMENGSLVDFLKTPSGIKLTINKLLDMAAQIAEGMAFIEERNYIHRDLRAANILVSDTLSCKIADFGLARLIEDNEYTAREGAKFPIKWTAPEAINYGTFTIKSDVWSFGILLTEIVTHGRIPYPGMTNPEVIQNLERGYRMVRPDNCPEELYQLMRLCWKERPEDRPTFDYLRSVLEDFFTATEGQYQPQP
Chain of full-length kinase/Nluc fusion proteins (Homo sapiens, UniProt P21802) (P21802 22-821): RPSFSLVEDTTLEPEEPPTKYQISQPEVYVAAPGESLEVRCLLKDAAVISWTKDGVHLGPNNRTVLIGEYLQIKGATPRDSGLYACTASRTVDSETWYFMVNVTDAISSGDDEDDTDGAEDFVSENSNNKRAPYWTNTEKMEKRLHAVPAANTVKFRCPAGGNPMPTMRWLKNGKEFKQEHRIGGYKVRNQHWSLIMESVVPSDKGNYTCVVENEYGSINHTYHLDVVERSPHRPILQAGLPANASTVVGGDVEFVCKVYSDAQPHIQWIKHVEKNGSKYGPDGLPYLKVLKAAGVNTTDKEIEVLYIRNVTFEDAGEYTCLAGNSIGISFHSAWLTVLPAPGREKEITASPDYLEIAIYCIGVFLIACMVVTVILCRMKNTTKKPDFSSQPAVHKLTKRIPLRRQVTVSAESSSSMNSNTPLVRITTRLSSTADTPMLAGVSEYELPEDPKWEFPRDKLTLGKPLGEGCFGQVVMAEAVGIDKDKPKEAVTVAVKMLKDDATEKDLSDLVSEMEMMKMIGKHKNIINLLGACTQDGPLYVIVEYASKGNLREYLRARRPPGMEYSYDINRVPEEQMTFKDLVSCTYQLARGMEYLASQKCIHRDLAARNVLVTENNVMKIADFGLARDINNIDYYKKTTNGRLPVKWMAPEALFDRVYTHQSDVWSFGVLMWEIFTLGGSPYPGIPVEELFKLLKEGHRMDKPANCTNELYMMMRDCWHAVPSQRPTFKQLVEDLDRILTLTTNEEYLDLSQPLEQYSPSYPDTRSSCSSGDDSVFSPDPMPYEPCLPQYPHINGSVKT
Chain of full-length kinase/Nluc fusion proteins (Homo sapiens, UniProt P22607) (P22607 23-806): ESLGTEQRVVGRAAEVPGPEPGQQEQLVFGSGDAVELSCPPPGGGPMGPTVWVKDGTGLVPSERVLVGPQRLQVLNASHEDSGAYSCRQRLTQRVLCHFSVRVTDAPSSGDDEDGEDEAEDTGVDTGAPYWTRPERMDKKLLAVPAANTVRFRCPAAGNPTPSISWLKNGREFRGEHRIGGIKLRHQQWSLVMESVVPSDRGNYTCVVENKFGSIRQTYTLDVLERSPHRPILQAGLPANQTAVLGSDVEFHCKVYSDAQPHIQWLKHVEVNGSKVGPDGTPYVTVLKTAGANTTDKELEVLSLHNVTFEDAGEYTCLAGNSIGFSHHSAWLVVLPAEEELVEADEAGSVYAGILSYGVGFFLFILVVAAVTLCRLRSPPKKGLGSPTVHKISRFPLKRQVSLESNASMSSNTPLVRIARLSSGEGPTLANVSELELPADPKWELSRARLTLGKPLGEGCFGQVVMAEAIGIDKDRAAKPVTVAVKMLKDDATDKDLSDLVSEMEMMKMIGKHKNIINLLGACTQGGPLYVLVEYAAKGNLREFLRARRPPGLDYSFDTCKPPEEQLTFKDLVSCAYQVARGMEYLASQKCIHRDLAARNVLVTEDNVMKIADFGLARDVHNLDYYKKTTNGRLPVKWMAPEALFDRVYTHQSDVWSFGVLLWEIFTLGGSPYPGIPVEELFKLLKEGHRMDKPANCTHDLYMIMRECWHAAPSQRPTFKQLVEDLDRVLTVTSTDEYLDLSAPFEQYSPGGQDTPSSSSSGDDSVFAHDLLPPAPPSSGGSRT
Chain of full-length kinase/Nluc fusion proteins (Homo sapiens, UniProt Q9NSY1) (Q9NSY1 whole entry, the tested form may be a part): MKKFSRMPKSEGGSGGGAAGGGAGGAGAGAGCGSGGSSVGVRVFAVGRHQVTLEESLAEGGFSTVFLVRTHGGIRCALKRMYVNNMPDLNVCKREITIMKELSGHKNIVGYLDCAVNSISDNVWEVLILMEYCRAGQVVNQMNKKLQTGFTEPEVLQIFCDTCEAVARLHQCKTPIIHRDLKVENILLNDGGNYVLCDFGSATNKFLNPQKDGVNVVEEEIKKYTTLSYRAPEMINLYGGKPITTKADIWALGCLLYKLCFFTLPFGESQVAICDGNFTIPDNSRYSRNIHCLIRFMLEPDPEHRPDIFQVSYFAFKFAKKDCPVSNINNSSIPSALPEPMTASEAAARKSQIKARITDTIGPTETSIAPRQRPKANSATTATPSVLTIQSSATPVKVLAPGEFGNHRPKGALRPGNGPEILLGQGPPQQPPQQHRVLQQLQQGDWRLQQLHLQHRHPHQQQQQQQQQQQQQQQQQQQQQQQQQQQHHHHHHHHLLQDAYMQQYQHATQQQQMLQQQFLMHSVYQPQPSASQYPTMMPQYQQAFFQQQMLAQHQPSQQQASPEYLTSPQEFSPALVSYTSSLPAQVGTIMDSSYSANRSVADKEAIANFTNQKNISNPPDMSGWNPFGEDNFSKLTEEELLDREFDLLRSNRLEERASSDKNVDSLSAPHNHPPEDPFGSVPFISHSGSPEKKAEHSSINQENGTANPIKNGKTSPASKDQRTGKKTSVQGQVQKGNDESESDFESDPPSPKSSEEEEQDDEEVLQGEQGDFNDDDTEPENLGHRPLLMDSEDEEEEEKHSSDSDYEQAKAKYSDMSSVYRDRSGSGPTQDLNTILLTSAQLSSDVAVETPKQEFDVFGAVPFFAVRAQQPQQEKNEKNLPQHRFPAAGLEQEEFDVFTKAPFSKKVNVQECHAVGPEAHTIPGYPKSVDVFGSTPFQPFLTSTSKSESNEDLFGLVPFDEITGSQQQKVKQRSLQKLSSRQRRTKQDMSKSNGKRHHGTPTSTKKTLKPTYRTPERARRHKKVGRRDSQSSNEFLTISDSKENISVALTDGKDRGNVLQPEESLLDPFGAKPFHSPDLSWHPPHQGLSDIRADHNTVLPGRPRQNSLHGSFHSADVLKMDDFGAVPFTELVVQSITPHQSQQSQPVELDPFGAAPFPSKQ
Chain of full-length kinase/Nluc fusion proteins (Homo sapiens, UniProt Q8NG66) (Q8NG66 whole entry, the tested form may be a part): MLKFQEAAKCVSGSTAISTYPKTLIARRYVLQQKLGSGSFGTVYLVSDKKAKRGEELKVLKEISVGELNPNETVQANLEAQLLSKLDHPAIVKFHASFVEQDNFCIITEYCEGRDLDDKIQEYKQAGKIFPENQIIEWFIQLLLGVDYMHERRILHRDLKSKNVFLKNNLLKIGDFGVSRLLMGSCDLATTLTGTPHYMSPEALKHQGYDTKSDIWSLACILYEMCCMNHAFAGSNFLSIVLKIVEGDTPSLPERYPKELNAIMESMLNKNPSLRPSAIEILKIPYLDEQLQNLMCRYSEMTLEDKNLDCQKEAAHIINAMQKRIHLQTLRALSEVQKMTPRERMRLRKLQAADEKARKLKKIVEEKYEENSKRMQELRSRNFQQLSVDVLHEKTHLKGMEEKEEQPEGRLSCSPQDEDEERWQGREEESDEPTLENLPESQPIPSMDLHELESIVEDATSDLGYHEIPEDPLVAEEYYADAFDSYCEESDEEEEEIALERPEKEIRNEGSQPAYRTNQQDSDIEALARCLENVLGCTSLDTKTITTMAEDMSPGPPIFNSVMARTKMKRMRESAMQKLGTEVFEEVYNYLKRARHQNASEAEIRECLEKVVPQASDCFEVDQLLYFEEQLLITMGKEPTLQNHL
Chain of full-length kinase/Nluc fusion proteins (Homo sapiens, UniProt Q9UQB9) (Q9UQB9 whole entry, the tested form may be a part): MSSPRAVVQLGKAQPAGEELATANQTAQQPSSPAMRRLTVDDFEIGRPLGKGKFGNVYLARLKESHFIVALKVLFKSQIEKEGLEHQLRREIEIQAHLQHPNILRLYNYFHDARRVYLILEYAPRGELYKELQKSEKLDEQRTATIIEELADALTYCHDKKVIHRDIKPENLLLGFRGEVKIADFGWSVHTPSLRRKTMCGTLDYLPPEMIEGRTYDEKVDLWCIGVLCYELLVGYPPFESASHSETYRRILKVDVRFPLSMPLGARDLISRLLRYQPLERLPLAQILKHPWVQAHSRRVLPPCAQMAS
Chain of full-length kinase/Nluc fusion proteins (Homo sapiens, UniProt P51955) (P51955 whole entry, the tested form may be a part): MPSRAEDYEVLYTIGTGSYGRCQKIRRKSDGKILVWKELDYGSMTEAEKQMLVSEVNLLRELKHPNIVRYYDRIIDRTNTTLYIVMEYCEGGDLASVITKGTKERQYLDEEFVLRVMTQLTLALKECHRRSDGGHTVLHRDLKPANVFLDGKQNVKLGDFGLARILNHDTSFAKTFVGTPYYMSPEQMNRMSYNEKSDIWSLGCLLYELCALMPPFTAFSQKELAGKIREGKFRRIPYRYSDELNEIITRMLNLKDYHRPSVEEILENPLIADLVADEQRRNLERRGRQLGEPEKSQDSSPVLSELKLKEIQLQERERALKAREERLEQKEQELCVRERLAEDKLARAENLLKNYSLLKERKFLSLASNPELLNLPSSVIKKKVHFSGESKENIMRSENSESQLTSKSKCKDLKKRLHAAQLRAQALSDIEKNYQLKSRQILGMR

SMILES: C[C@@H](Oc1cc(-c2cnn(C3CCNCC3)c2)cnc1N)c1c(Cl)ccc(F)c1Cl [Crizotinib]
IC50 [1]: […] | IC50 [2]: […] | IC50 [3]: […] | IC50 [4]: […] | IC50 [5]: […] | receptor occupancy at 1 µM ([6]; read-out: cellular occupancy): < 10%

EC50 [7]: 400 nM | EC50 ([8]; Nluc C (probe 5)): > 1000 nM | EC50 [9]: 600 nM | EC50 [10]: 500 nM | EC50 [11]: 500 nM | EC50 [12]: > 1000 nM | EC50 [13]: > 1000 nM | EC50 [14]: > 1000 nM | EC50 [15]: > 1000 nM | EC50 [16]: > 1000 nM | EC50 [17]: > 1000 nM | EC50 [18]: 300 nM | EC50 [19]: > 1000 nM | EC50 [20]: > 1000 nM | EC50 [21]: 20 nM
SMILES: CNC(=O)c1ccccc1Nc1nc(Nc2ccc(N3CCN(C(=O)CCOCCOCCOCCOCCNC(=O)CCc4ccc5n4[B-](F)(F)[N+]4=C(c6ccc[nH]6)C=CC4=C5)CC3)cc2)ncc1Cl [Energy Transfer Probe 5, 2-((2-((4-(4-(1-amino-3,6,9,12-tetraoxapentadecan-15-oyl)piperazin-1-yl)phenyl)amino)-5-chloropyrimidin-4-yl)amino)-N-methylbenzamide-NanoBRET 590]

EC50 ([8]; Nluc C (probe 6)): > 1000 nM | EC50 [22]: 200 nM | EC50 [23]: 200 nM | EC50 [24]: 10 nM | EC50 ([6]; ATP Depleted): > 1000 nM | EC50 ([6]; Live): > 1000 nM | EC50 ([6]; Permeabilized): 7 ± 3 nM
SMILES: Cc1nc(Nc2ncc(C(=O)Nc3c(C)cccc3Cl)s2)cc(N2CCN(CCOCCNC(=O)CCc3ccc4n3[B-](F)(F)[N+]3=C(c5ccc[nH]5)C=CC3=C4)CC2)n1 [Energy Transfer Probe 6, 2-((6-(4-(2-(2-aminoethoxy)ethyl)piperazin-1-yl)-2-methylpyrimidin-4-yl)amino)-N-(2-chloro-6-methylphenyl)thiazole-5-carboxamide-NanoBRET 590]
